# Test results: ChEMBL document CHEMBL2069208, “Isolactarane and sterpurane sesquiterpenoids from the basidiomycete Phlebia uda” (J Nat Prod, 2012)
# Activity calls are given as the source filed them. No cut-off for these calls is given here.
# Legend:
# [1] = tested on: Jurkat; assay: Growth inhibition of human Jurkat cells; assay type: functional, cell-based
# [2] = tested on: HepG2; assay: Growth inhibition of human HepG2 cells up to 50 ug/ml; assay type: functional, cell-based
# [3] = tested on: Fusarium graminearum; assay: Inhibition of spore germination of Fusarium graminearum assessed as compound concentration causing 75 to 100% germination inhibition; assay type: functional
# [4] = tested on: Pyricularia grisea; assay: Inhibition of spore germination of Magnaporthe grisea assessed as compound concentration causing 75 to 100% germination inhibition; assay type: functional
# [5] = tested on: Phytophthora infestans; assay: Inhibition of spore germination of Phytophthora infestans assessed as compound concentration causing 75 to 100% germination inhibition; assay type: functional
# [6] = tested on: Botrytis cinerea; assay: Inhibition of spore germination of Botrytis cinerea assessed as compound concentration causing 75 to 100% germination inhibition; assay type: functional
# [7] = tested on: Jurkat; assay: Growth inhibition of human Jurkat cells up to 50 ug/mL; assay type: functional, cell-based
structure (smiles),measurement,setting,value
CC1=C2C[C@@](C)(C(=O)O)C[C@H]2C[C@]2(C)CC[C@]12O,IC50,[1],160 µM
same,growth inhibition (GI),[2],inactive
CC1(C)CC2=C(C=O)[C@@]34C[C@]3(C[C@@H]2C1)C(=O)OC4O (stereo not given in full),INH,[3],10 µg/mL
same,INH,[4],10 µg/mL
same,INH,[5],25 µg/mL
same,INH,[6],50 µg/mL
CCC(C)CCOC1OC(=O)[C@]23C[C@@H]4CC(C)(C)CC4=C(C=O)[C@]12C3 (mixture of isomers) [UDALACTARANE A],INH,[3],10 µg/mL
same,INH,[4],10 µg/mL
same,INH,[5],100 µg/mL
same,INH,[6],>100 µg/mL
same,IC50,[1],101 µM
same,growth inhibition (GI),[2],inactive
Cc1cc(C2CCCCC2)n(O)c(=O)c1 [CICLOPIROX],INH,[6],50 µg/mL
CC1=C2C[C@@](C)(CO)C[C@H]2C[C@]2(C)CC[C@]12O,growth inhibition (GI),[7],inactive
same,growth inhibition (GI),[2],inactive
CC1=C2C[C@@](C)(COC3OC(=O)[C@]45C[C@@H]6CC(C)(C)CC6=C(C=O)[C@]34C5)C[C@H]2C[C@]2(C)CC[C@]12O (mixture of isomers) [UDALACTARANE B],INH,[3],5 µg/mL
same,INH,[5],10 µg/mL
same,INH,[6],>100 µg/mL
same,IC50,[1],42 µM
same,growth inhibition (GI),[2],inactive
